Measured values as given in US20140005163A1 (NOVARTIS AG, priority 2010, published 2014).
≈ marks a conversion by molar mass, not a printed value.

Columns and labels:
[1] = tested on: PKB Ser473 phosphorylation in Rat1-myr-HA-p110 beta cells; experiment: Reverse protein array assay, PKB Ser473 phosphorylation in Rat1-myr-p110 beta cells; format: cell-based; conditions: 0.5 h, pAkt Ser473, 30 minutes incubation, read-out: p-PKB IC50
Outline: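 Cells: Rat1-myr-HA-p110 alpha/beta/delta, seeded ≥20 h. Lysis on ice 10 min; reverse-phase protein array, 4 lysate dilutions; fluorescence read, relative intensity.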

Solubility at pH 6.8 = format: physicochemical; conditions: pH 6.8, aqueous buffer, thermodynamic from solid; read-out: solubility
Outline: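 Solubility was measured at pH 6.8 following the cited Zhou et al. (2007) procedure.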

PI3K alpha = target: T1, PI3K alpha (Homo sapiens, UniProt P42336); experiment: PI3K alpha kinase assay (Kinase-Glo luminescence); format: biochemical
T1 construct: p85(iSH2) fusion partner (see partner chain) (N); His tag (C); made in house; host or cells: baculovirus; Tn5 (Trichoplusia ni) or TiniPro insect cells
Outline: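 PI3Kα construct EMV B1075 (10 nM final) was preincubated with 10 μg/mL phosphatidylinositol in 10 mM Tris-HCl pH 7.5, 3 mM MgCl2, 50 mM NaCl, 0.05% CHAPS, 1 mM DTT. Reaction started with 1 μM ATP, 60 min at room temperature; remaining ATP measured by Kinase-Glo luminescence. IC50 from 4-parameter logistic fit of 8-point titrations.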

PI3K beta = target: T2, PI3K beta (Homo sapiens, UniProt P42338); experiment: PI3K beta kinase assay (Kinase-Glo luminescence); format: biochemical
T2 construct: for the full-length p110-b subunit are generated and fused by overlapping PCR; p85(iSH2) fusion partner (see partner chain) (N); His tag (C); made in house; host or cells: baculovirus; Tn5 (Trichoplusia ni) or TiniPro insect cells
Outline: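 Full-length p110β with a Gly-linked p85 iSH2 and a C-terminal His tag (BV949, 25 nM) was incubated with 10 μg/mL phosphatidylinositol and 1 μM ATP in 10 mM Tris pH 7.5, 3 mM MgCl2, 50 mM NaCl, 0.05% CHAPS, 1 mM DTT for 60 min at room temperature. Residual ATP was read by Kinase-Glo luminescence.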

T2 sequence (P42338 with tags, fused parts or gaps limits assumed): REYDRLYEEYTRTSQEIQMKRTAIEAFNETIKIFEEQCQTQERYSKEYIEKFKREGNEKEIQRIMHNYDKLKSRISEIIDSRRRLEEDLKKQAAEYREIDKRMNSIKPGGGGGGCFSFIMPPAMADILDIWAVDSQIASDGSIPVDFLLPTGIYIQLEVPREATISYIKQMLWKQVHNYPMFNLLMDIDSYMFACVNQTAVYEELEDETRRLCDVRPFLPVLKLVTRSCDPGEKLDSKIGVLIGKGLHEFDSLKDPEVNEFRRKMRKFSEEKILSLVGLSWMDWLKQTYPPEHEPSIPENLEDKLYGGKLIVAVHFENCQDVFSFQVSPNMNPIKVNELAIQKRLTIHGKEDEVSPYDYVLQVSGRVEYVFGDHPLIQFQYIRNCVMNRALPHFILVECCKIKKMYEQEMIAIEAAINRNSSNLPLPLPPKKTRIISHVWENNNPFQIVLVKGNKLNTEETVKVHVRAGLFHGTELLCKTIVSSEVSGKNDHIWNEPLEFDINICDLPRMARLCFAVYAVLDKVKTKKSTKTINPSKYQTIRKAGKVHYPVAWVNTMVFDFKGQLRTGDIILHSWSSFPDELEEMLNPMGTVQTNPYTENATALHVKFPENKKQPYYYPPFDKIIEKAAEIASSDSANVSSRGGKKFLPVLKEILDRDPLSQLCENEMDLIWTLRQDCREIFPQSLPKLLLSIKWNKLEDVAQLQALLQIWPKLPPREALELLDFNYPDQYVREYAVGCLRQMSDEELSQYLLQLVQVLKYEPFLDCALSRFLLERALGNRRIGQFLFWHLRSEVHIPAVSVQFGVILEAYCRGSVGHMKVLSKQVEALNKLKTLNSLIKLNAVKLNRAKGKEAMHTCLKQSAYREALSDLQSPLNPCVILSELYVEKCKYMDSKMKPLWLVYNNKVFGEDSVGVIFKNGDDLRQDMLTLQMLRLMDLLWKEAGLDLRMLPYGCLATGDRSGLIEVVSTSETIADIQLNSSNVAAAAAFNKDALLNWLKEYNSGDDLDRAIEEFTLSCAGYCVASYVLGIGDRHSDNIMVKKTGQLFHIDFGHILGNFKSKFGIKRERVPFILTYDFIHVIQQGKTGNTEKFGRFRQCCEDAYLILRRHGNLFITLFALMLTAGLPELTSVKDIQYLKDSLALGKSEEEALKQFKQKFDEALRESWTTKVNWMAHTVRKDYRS
T1 sequence (P42336 with tags, fused parts or gaps limits assumed): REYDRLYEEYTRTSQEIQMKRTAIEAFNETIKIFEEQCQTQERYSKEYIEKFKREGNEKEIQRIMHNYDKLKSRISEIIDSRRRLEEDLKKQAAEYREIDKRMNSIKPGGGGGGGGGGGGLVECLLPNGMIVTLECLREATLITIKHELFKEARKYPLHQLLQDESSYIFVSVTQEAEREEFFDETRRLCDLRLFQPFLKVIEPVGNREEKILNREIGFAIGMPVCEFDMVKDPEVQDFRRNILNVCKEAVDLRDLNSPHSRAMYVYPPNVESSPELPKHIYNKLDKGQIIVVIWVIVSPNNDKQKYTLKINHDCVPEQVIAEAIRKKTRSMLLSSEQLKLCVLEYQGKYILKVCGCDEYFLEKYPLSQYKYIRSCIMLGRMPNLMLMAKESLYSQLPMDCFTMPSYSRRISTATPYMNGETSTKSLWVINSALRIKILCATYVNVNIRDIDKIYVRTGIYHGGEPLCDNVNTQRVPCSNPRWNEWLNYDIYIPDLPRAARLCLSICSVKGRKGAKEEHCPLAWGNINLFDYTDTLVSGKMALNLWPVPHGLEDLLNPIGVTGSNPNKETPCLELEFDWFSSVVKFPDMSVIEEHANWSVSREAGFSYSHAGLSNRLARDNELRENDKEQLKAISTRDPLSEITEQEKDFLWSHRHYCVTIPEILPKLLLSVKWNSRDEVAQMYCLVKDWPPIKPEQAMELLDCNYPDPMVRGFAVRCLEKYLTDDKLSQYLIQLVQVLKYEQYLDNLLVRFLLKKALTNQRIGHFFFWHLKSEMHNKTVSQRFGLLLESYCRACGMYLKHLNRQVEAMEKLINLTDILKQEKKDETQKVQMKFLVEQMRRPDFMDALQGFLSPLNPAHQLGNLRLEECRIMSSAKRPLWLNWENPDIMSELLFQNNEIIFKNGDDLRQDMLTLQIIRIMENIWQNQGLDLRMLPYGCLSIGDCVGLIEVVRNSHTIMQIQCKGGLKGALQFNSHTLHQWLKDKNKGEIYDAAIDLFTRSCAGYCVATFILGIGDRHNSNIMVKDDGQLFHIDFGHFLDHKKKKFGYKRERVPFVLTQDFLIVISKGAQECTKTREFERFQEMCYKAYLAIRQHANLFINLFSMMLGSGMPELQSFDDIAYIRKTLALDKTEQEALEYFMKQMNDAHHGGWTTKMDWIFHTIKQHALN

| SMILES | IC50 [1] [nM] | solubility (Solubility at pH 6.8) [µg/mL] | IC50 (PI3K alpha) [nM] | IC50 (PI3K beta) [nM] |
| --- | --- | --- | --- | --- |
| CCOc1ccc(-c2ccc3ncc4c(c3c2)n(-c2c(C)nn(C)c2C)c(=O)n4C)cc1OCC [Example 27.2, 8-(3,4-Diethoxy-phenyl)-3-methyl-1-(1,3,5-trimethyl-1H-pyrazol-4-yl)-1,3-dihydro-imidazo[4,5-c]quinolin-2-one] | 389 | 4 (≈ 8.48 µM) | 48 | 173 |
| CCOc1ccc(-c2ccc3ncc4c(c3c2)n(-c2cn(CC)nc2C)c(=O)n4C)cc1OC [Example 29.1, 8-(4-Ethoxy-3-methoxy-phenyl)-1-(1-ethyl-3-methyl-1H-pyrazol-4-yl)-3-methyl-1,3-dihydro-imidazo[4,5-c]quinolin-2-one] | 93 | 3 (≈ 6.56 µM) | 24 | 57 |
| Cc1nn(C)cc1-n1c(=O)n(C)c2cnc3ccc(-c4cnc5ccccc5c4)cc3c21 [Example 38, 1-(1,3-Dimethyl-1H-pyrazol-4-yl)-3-methyl-8-quinolin-3-yl-1,3-dihydro-imidazo[4,5-c]quinolin-2-one] | 9 | 13 (≈ 30.9 µM) | 8 | 40 |
| Cc1nn(C)cc1-n1c(=O)n(C)c2cnc3ccc(-c4cccc(S(=O)(=O)N5CCCC5)c4)cc3c21 [Example 44, 1-(1,3-Dimethyl-1H-pyrazol-4-yl)-3-methyl-8-[3-(pyrrolidine-1-sulfonyl)-phenyl]-1,3-dihydro-imidazo[4,5-c]quinolin-2-one] | 42 | 8 (≈ 15.9 µM) | 70 | 218 |
| CCn1cc(-n2c(=O)n(C)c3cnc4ccc(-c5cncc(N)c5)cc4c32)c(C)n1 [Example 45.2, 8-(5-Amino-pyridin-3-yl)-1-(1-ethyl-3-methyl-1H-pyrazol-4-yl)-3-methyl-1,3-dihydro-imidazo[4,5-c]quinolin-2-one] | 36 | 10 (≈ 25 µM) | 74 | 29 |
| Cc1nn(C(C)C)cc1-n1c(=O)n(C)c2cnc3ccc(-c4cncc(N)c4)cc3c21 [Example 45.3, 8-(5-Amino-pyridin-3-yl)-1-(1-isopropyl-3-methyl-1H-pyrazol-4-yl)-3-methyl-1,3-dihydro-imidazo[4,5-c]quinolin-2-one] | 36 | 4 (≈ 9.67 µM) | 76 | 169 |
| CCOc1cncc(-c2ccc3ncc4c(c3c2)n(-c2cn(CC(=O)N(C)C)nc2C)c(=O)n4C)c1 [Example 56.2, 2-{4-[8-(5-Ethoxy-pyridin-3-yl)-3-methyl-2-oxo-2,3-dihydro-imidazo[4,5-c]quinolin-1-yl]-3-methyl-pyrazol-1-yl}-N,N-dimethyl-acetamide] | 409 | > 486 | 25 | 317 |
| Cc1cnn(C)c1-n1c(=O)n(C)c2cnc3ccc(-c4cncc(OC(C)C)c4)cc3c21 [Example 58.3, 1-(2,4-Dimethyl-2H-pyrazol-3-yl)-8-(5-isopropoxy-pyridin-3-yl)-3-methyl-1,3-dihydro-imidazo[4,5-c]quinolin-2-one] | 281 | 6 (≈ 14 µM) | 236 | 203 |
| COCCOc1cncc(-c2ccc3ncc4c(c3c2)n(-c2cn(C)nc2Cl)c(=O)n4C)c1 [Example 59.2, 1-(3-Chloro-1-methyl-1H-pyrazol-4-yl)-8-[5-(2-methoxy-ethoxy)-pyridin-3-yl]-3-methyl-1,3-dihydro-imidazo[4,5-c]quinolin-2-one] | 61 | 6 (≈ 12.9 µM) | 5 | 19 |
| CCOc1ncc(-c2ccc3ncc4c(c3c2)n(-c2cn(C)nc2C)c(=O)n4C)cc1N(C)C(C)=O [Example 63, N-{5-[1-(1,3-Dimethyl-1H-pyrazol-4-yl)-3-methyl-2-oxo-2,3-dihydro-1H-imidazo[4,5-c]quinolin-8-yl]-2-ethoxy-pyridin-3-yl}-N-methyl-acetamide] | 744 | > 486 | 92 | 110 |
| Cc1ncc(-c2ccc3ncc4c(c3c2)n(-c2cn(C)nc2C)c(=O)n4C)cc1NS(C)(=O)=O [Example 76, N-{5-[1-(1,3-Dimethyl-1H-pyrazol-4-yl)-3-methyl-2-oxo-2,3-dihydro-1H-imidazo[4,5-c]quinolin-8-yl]-2-methyl-pyridin-3-yl}-methanesulfonamide] | 356 | 13 (≈ 27.2 µM) | 6 | 10 |
| CCOc1cc(-c2ccc3ncc4c(c3c2)n(-c2c(C)nn(CC(=O)N(C)C)c2C)c(=O)n4C)cnc1C [Example 85.3, 2-{4-[8-(5-Ethoxy-6-methyl-pyridin-3-yl)-3-methyl-2-oxo-2,3-dihydro-imidazo[4,5-c]quinolin-1-yl]-3,5-dimethyl-pyrazol-1-yl}-N,N-dimethyl-acetamide] | 766 | 76 (≈ 148 µM) | 34 | 477 |
| CCNc1cc(-c2ccc3ncc4c(c3c2)n(-c2cn(C)nc2Cl)c(=O)n4C)cnc1C [Example 87.2, 1-(3-Chloro-1-methyl-1H-pyrazol-4-yl)-8-(5-ethylamino-6-methyl-pyridin-3-yl)-3-methyl-1,3-dihydro-imidazo[4,5-c]quinolin-2-one] | < 5 | 222 (≈ 496 µM) | 30 | 22 |
| CCNc1cc(-c2ccc3ncc4c(c3c2)n(-c2cn(CC)nc2C)c(=O)n4C)cnc1C [Example 87.3, 8-(5-Ethylamino-6-methyl-pyridin-3-yl)-1-(1-ethyl-3-methyl-1H-pyrazol-4-yl)-3-methyl-1,3-dihydro-imidazo[4,5-c]quinolin-2-one] | < 5 | > 442 | 9 | 12 |
| COc1ncc(-c2ccc3ncc4c(c3c2)n(-c2cn(C)nc2Cl)c(=O)n4C)cc1N [Example 89, 8-(5-Amino-6-methoxy-pyridin-3-yl)-1-(3-chloro-1-methyl-1H-pyrazol-4-yl)-3-methyl-1,3-dihydro-imidazo[4,5-c]quinolin-2-one] | < 5 | 3 (≈ 6.88 µM) | 18 | 23 |
| Cc1nn(C)cc1-n1c(=O)n(C)c2cnc3ccc(-c4ccnc(OC(C)C)c4)cc3c21 [Example 92, 1-(1,3-Dimethyl-1H-pyrazol-4-yl)-8-(2-isopropoxy-pyridin-4-yl)-3-methyl-1,3-dihydro-imidazo[4,5-c]quinolin-2-one] | 715 | 7 (≈ 16.3 µM) | 104 | 246 |
| CCN(C)c1ccc(-c2ccc3ncc4c(c3c2)n(-c2cn(C)nc2C)c(=O)n4C)cn1 [Example 98.1, 1-(1,3-Dimethyl-1H-pyrazol-4-yl)-8-[6-(ethyl-methyl-amino)-pyridin-3-yl]-3-methyl-1,3-dihydro-imidazo[4,5-c]quinolin-2-one] | 13 | 8 (≈ 18.7 µM) | 34 | 407 |
| COC(=O)c1ccc(-c2ccc3ncc4c(c3c2)n(-c2cn(C)nc2C)c(=O)n4C)cn1 [Example 100, 5-[1-(1,3-Dimethyl-1H-pyrazol-4-yl)-3-methyl-2-oxo-2,3-dihydro-1H-imidazo[4,5-c]quinolin-8-yl]-pyridine-2-carboxylic acid methyl ester] | 14 | 12 (≈ 28 µM) | 18 | 140 |
| COCc1ccc(-c2ccc3ncc4c(c3c2)n(-c2cn(C(C)C)nc2C)c(=O)n4C)cn1 [Example 105, 1-(1-Isopropyl-3-methyl-1H-pyrazol-4-yl)-8-(6-methoxymethyl-pyridin-3-yl)-3-methyl-1,3-dihydro-imidazo[4,5-c]quinolin-2-one] | 41 | > 443 | 110 | 163 |
| COc1ccc(-c2ccc3ncc4[nH]c(=O)n(-c5cn(C)nc5C)c4c3c2)cn1 [Example 109, 1-(1,3-Dimethyl-1H-pyrazol-4-yl)-8-(6-methoxy-pyridin-3-yl)-1,3-dihydro-imidazo[4,5-c]quinolin-2-one] | 89 | 3 (≈ 7.76 µM) | 12 | 38 |
| Cc1nn(C)cc1-n1c(=O)n(C)c2cnc3ccc(-c4cnc5c(ccn5C)c4)cc3c21 [Example 116, 1-(1,3-Dimethyl-1H-pyrazol-4-yl)-3-methyl-8-(1-methyl-1H-pyrrolo[2,3-b]pyridin-5-yl)-1,3-dihydro-imidazo[4,5-c]quinolin-2-one] | 18 | 3 (≈ 7.08 µM) | 12 | 206 |
| CNC(=O)c1cc(-c2ccc3ncc4c(c3c2)n(-c2cn(C)nc2C)c(=O)n4C)cnc1OC [Example 125.1, 5-[1-(1,3-Dimethyl-1H-pyrazol-4-yl)-3-methyl-2-oxo-2,3-dihydro-1H-imidazo[4,5-c]quinolin-8-yl]-2-methoxy-N-methyl-nicotinamide] | 98 | 6 (≈ 13.1 µM) | 28 | 61 |
